Measurements from patent US8748348B2, “3-(3,4-dihydro-2H-benzo [1,4]oxazin-6-yl)-1H-pyrimidin-2,4-dione compounds as herbicides” (BASF SE, priority 2009, dated 2014).

How the values were obtained:
COMBE = test: greenhouse post-emergence herbicidal test; type: in vivo, Commenline benghalensis; conditions: scale from 0 to 100
Source text: (§1) The culture containers used were plastic flowerpots containing loamy sand with approximately 3.0% of humus as the substrate. The seeds of the test plants were sown separately for each species.
(§2) For the post-emergence treatment, the test plants were first grown to a height of 3 to 15 cm, depending on the plant habit, and only then treated with the active ingredients which had been suspended or emulsified in water. For this purpose, the test plants were either sown directly and grown in the same containers, or they were first grown separately as seedlings and transplanted into the test containers a few days prior to treatment.
(§3) Depending on the species, the plants were kept at 10-25° C. or 20-35° C. The test period extended over 2 to 4 weeks. During this time, the plants were tended, and their response to the individual treatments was evaluated.
(§4) Evaluation was carried out using a scale from 0 to 100. 100 means no emergence of the plants, or complete destruction of at least the aerial moieties, and 0 means no damage, or normal course of growth. A good herbicidal activity is given at values of at least 70 and a very good herbicidal activity is given at values of at least 85.

BRAPL = test: greenhouse post-emergence herbicidal test; type: in vivo, Brachiaria plantaginea; conditions: scale from 0 to 100
Source text: as §1, §2, §3, §4

ERICA = test: greenhouse post-emergence herbicidal test; type: in vivo, Erigeron canadensis; conditions: scale from 0 to 100
Source text: as §1, §2, §3, §4

SETVI = test: greenhouse post-emergence herbicidal test; type: in vivo, Setaria viridis; conditions: scale from 0 to 100
Source text: as §1, §2, §3, §4

BRADE = test: greenhouse post-emergence herbicidal test; type: in vivo, Brachiaria deflexa; conditions: scale from 0 to 100
Source text: as §1, §2, §3, §4

ELEIN = test: greenhouse post-emergence herbicidal test; type: in vivo, Eleusine indica; conditions: scale from 0 to 100
Source text: as §1, §2, §3, §4

DIGSA = test: greenhouse post-emergence herbicidal test; type: in vivo, Digitaria sanguinales; conditions: scale from 0 to 100
Source text: as §1, §2, §3, §4

Erigeron Canadensis = test: greenhouse pre-emergence herbicidal test; type: in vivo; conditions: pre-emergence method, application rate 6.25 g/ha
Source text: as §1
(§5) For the pre-emergence treatment, the active ingredients, which had been suspended or emulsified in water, were applied directly after sowing by means of finely distributing nozzles. The containers were irrigated gently to promote germination and growth and subsequently covered with transparent plastic hoods until the plants had rooted. This cover caused uniform germination of the test plants, unless this has been impaired by the active ingredients.
as §3, §4

Pharbitis purpurea [1] = test: greenhouse pre-emergence herbicidal test; type: in vivo; conditions: application rate 0.025 kg/ha, eight days after treatment (greenhouse)
Source text: as §1, §5, §3, §4

Setaria faberi = test: greenhouse pre-emergence herbicidal test; type: in vivo; conditions: application rate 0.025 kg/ha, eight days after treatment (greenhouse)
Source text: as §1, §5, §3, §4

Solanum nigrum = test: greenhouse pre-emergence herbicidal test; type: in vivo; conditions: pre-emergence method, application rate 6.25 g/ha
Source text: as §1, §5, §3, §4

Amaranthus retroflexus [2] = test: greenhouse pre-emergence herbicidal test; type: in vivo; conditions: pre-emergence method, application rate 6.25 g/ha
Source text: as §1, §5, §3, §4

Pharbitis purpurea [3] = test: greenhouse post-emergence herbicidal test; type: in vivo; conditions: post-emergence method, application rate 6.25 g/ha
Source text: as §1, §2, §3, §4

Chenopodium album = test: greenhouse post-emergence herbicidal test; type: in vivo; conditions: post-emergence method, application rate 6.25 g/ha
Source text: as §1, §2, §3, §4

Abutilon theophrasti = test: greenhouse post-emergence herbicidal test; type: in vivo; conditions: post-emergence method, application rate 6.25 g/ha
Source text: as §1, §2, §3, §4

Amaranthus retroflexus [4] = test: greenhouse post-emergence herbicidal test; type: in vivo; conditions: post-emergence method, application rate 6.25 g/ha
Source text: as §1, §2, §3, §4

Structure (SMILES): CCNc1nc(Cl)nc(NC(C)C)n1 [B.54, atrazine, reference compound]
- herbicidal activity against COMBE found (COMBE; B.54 250 g/ha a.s.): 70
- herbicidal activity against BRAPL found (BRAPL; B.54 250 g/ha a.s.): 20

Structure (SMILES): CC(C)N(C)S(=O)(=O)NC(=O)c1cc(-n2c(=O)cc(C(F)(F)F)n(C)c2=O)c(F)cc1Cl [B.76, saflufenacil]
- herbicidal activity against ERICA found (ERICA; B.76 1.56 g/ha a.s.): 45
- herbicidal activity against SETVI found (SETVI; B.76 1.56 g/ha a.s.): 0

Structure (SMILES): Cc1c(C(=O)c2cnn(C)c2O)ccc(S(C)(=O)=O)c1C1=NOCC1 [B.93, topramezone, reference compound]
- herbicidal activity against BRADE found (BRADE; B.93 3.1 g/ha a.s.): 65

Structure (SMILES): CC(C)N.O=C(O)CNCP(=O)(O)O [B.98, glyphosate-isopropylammonium]
- herbicidal activity against ERICA found (ERICA; B.98 68 g/ha a.s.): 80
- herbicidal activity against SETVI found (SETVI; B.98 68 g/ha a.s.): 90
- herbicidal activity against ELEIN found (ELEIN; B.98 135 g/ha a.s.): 60

Structure (SMILES): Cn1nc(C(F)(F)F)c(CS(=O)(=O)C2=NOC(C)(C)C2)c1OC(F)F [B.118, pyroxasulfone, reference compound]
- herbicidal activity against DIGSA found (DIGSA; B.118 12.5 g/ha a.s.): 35

Structure (SMILES): C#CCN1C(=O)C(F)(F)Oc2cc(F)c(-n3c(=O)cc(C(F)(F)F)n(C)c3=O)cc21 [Ia48, 1-Methyl-6-trifluoromethyl-3-(2,2,7-trifluoro-3-oxo-4-prop-2-ynyl-3,4-dihydro-2H-benzo[1,4]oxazin-6-yl)-1H-pyrimidine-2,4-dione]
- herbicidal activity against COMBE found (COMBE; Ia48 3.12 g/ha a.s.): 60
- herbicidal activity against BRAPL found (BRAPL; Ia48 6.25 g/ha a.s.): 60
- herbicidal activity against ERICA found (ERICA; Ia48 12.5 g/ha a.s.): 90
- herbicidal activity against DIGSA found (DIGSA; Ia48 6.25 g/ha a.s.): 65
- herbicidal activity against SETVI found (SETVI; Ia48 12.5 g/ha a.s.): 95
- herbicidal activity against ELEIN found (ELEIN; Ia48 3.12 g/ha a.s.): 20
- herbicidal activity against BRADE found (BRADE; Ia48 6.25 g/ha a.s.): 85
- herbicidal activity against Erigeron Canadensis (Erigeron Canadensis): very good herbicidal activity (a very good herbicidal activity is given at values of at least 85)
- damages, unwanted plants Pharbitis purpurea (Pharbitis purpurea [1]): 90
- damages, unwanted plants Setaria faberi (Setaria faberi): 98
- herbicidal activity against Solanum nigrum (Solanum nigrum): very good herbicidal activity (a very good herbicidal activity is given at values of at least 85)
- herbicidal activity against Amaranthus retroflexus (Amaranthus retroflexus [2]): very good herbicidal activity (a very good herbicidal activity is given at values of at least 85)
- herbicidal activity against Pharbitis purpurea (Pharbitis purpurea [3]): very good herbicidal activity (a very good herbicidal activity is given at values of at least 85)
- herbicidal activity against Chenopodium album (Chenopodium album): very good herbicidal activity (a very good herbicidal activity is given at values of at least 85)
- herbicidal activity against Abutilon theophrasti (Abutilon theophrasti): very good herbicidal activity (a very good herbicidal activity is given at values of at least 85)
- herbicidal activity against Amaranthus retroflexus (Amaranthus retroflexus [4]): very good herbicidal activity (a very good herbicidal activity is given at values of at least 85)

Structure (SMILES): C#CCN1C(=O)COc2cc(F)c(-n3c(=O)cc(C(F)(F)F)n(C)c3=O)cc21 [example 39, reference compound]
- damages, unwanted plants Pharbitis purpurea (Pharbitis purpurea [1]): 80
- damages, unwanted plants Setaria faberi (Setaria faberi): 90
